Measurements reported in ChEMBL document CHEMBL1156409, “Durhamycin A, a potent inhibitor of HIV Tat transactivation” (J Nat Prod, 2002).

What was measured:
[1] = Inhibition of HIV Tat transactivation in human 63A9 cells by luciferase based reporter gene assay; format: cell-based, Human immunodeficiency virus
[2] = Cytotoxicity against human 63A9 cells at 25 uM by MTS assay; format: cell-based; conditions: 63a9, 25 µM
[3] = test system: Human immunodeficiency virus; test: Antiviral activity against HIV H9/3B in HeLa P4/P5 cells after 48 hrs by vertical assay; format: functional, organism-based; conditions: Human immunodeficiency virus 1, H9/3B
[4] = Cytotoxicity against human HeLa P4/P5 cells up to 5 uM; format: cell-based
[5] = Human immunodeficiency virus 1, 63A9, read-out: IC50

## CCC(C)c1c(O)cc2cc3c(c(O)c2c1O)C(=O)C(O)C(C(OC)C(=O)C(O)C(C)O)C3 (stereo unspecified)
[1]; 63a9
  IC50: Not Active

## CCC(C)c1c(O[C@H]2C[C@@H](O[C@H]3C[C@@H](O)[C@H](O)[C@@H](C)O3)[C@H](O)[C@@H](C)O2)cc2cc3c(c(O)c2c1O)C(=O)C(O[C@H]1C[C@@H](O[C@H]2C[C@@H](O[C@H]4C[C@@H](O[C@H]5C[C@@H](O)[C@H](O)[C@@H](C)O5)[C@H](O)[C@@H](C)O4)[C@@H](OC(C)=O)[C@@H](C)O2)[C@H](O)[C@@H](C)O1)C(C(OC)C(=O)C(O)C(C)O)C3 (stereo partly specified) [DURHAMYCIN A]
[1]; [5]
  IC50: 4.8 nM
[2]
  Activity: Non-toxic
[3]
  IC50: 11.6 nM
[4]
  Activity: Non-toxic

## CCC(C)c1c(O[C@H]2C[C@@H](O[C@H]3C[C@@H](O)[C@H](O)[C@@H](C)O3)[C@H](O)[C@@H](C)O2)cc2cc3c(c(O)c2c1O)C(=O)C(O[C@H]1C[C@@H](O[C@H]2C[C@@H](O[C@H]4C[C@@H](O)[C@H](O)[C@@H](C)O4)[C@@H](OC(C)=O)[C@@H](C)O2)[C@H](O)[C@@H](C)O1)C(C(OC)C(=O)C(O)C(C)O)C3 (stereo partly specified) [DURHAMYCIN B]
[1]; [5]
  IC50: 48 nM
